Measured values reported in patent publication US20070197512A1, “Carboxylic Acid Compounds and Use Thereof” (Japan Tobacco Inc., priority 2006, published 2007).

Assays:
[1] = molecular target: T1, human URAT1 (Homo sapiens, UniProt Q96S37); test: Uric acid transport inhibitory test using human URAT1-expressing cells; assay type: cell-based; conditions: human URAT1-expressing HEK293 cells, 14C-uric acid 50 μM, uptake 5 min, room temperature; read-out: hURAT1 IC50
T1 construct: Human URAT1 full length cDNA was subcloned to expression vector pcDNA3.1; expressed in transfected cells; host or cells: HEK293 cells (pcDNA3.1, geneticin-selected)
T1 sequence (Q96S37 1-553): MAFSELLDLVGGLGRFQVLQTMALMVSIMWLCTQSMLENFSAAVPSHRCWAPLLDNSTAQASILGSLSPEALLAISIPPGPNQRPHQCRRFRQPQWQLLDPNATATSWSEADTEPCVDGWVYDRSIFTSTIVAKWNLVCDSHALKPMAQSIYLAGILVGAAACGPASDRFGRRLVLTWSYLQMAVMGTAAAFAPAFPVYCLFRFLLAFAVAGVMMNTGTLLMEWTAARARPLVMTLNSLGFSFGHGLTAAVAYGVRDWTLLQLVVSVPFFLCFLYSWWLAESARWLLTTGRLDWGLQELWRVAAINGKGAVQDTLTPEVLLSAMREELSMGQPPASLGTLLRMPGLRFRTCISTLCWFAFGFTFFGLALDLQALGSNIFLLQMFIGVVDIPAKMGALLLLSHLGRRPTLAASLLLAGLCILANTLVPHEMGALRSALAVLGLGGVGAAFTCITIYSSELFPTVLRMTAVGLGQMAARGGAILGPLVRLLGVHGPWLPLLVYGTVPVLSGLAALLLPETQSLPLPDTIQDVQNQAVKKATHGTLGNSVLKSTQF
Excerpt: Experimental Example 1 Uric Acid Transport Inhibitory Test Using Human URAT1-Expressing Cells
Human URAT1 full length cDNA was subcloned to expression vector pcDNA3.1 and human URAT1 gene was transfected into human embryonic kidney derived cell line (HEK293 cells) by liposome method using Lipofectamine2000. Simultaneously, HEK293 cells transfected with expression vector pcDNA3.1 alone (hereinafter mock cells) were also produced. HEK293 cells expressing human URAT1 gene or mock cells were selected with geneticin resistance as an index. The functional expression of human URAT1 gene was confirmed by a method similar to the following method, using ^14C-uric acid transport into the cells as an index.
Human URAT1-expressing HEK293 cells or mock cells were cultured in Dulbecco's modified Eagle's MEM medium (high glucose) containing 10% fetal bovine serum, 0.5 mg/mL geneticin sulfate, 100 units/mL penicillin and 100 μg/mL streptomycin under the conditions of 37° C. and 5% CO2 in an incubator. The cells were plated in a 96 well plate (poly-D-Lysine coated) at 1×10^5 cells/well and the following uric acid transport inhibitory test was performed 24 hr later. This test was performed at room temperature.
After the medium was removed by aspiration from each well, the cells were washed once with Hank's Balanced Salt Solution (HBSS) and preincubated with HBSS (100 μL/well) for 5 min. HBSS was aspirated and an assay buffer (wherein NaCl in the above-mentioned HBSS had been substituted with Na-gluconate) containing various concentrations of the Example compound and a radioactive ligand (14C-uric acid; final concentration 50 μM) was added to each well at 50 μL/well and an uptake reaction was carried out for 5 min. After the reaction, the cells were washed twice with ice-cold HBSS (150 μL/well), and Microscinti™ 20 (PerkinElmer) was added at 50 μL/well. The cells were lysed by stirring and the radioactivity of each well was measured by a liquid scintillation counter (TOP COUNT, Packard).
The uric acid transport rate (%) of the Example compound at each concentration was calculated relative to the radioactivity (difference in radioactivity between human URAT1-expressing HEK293 cells and mock cells without addition of Example compound (DMSO addition)) showing URAT1 specific uric acid transport as 100%, and the concentration (IC50) of the Example compound necessary for inhibiting the uric acid transport rate by 50% was determined. In Table 24-Table 27, “+++” means IC50 value of less than 300 nM, “++” means IC50 value of 300 nM to less than 3000 nM, and “+” means IC50 value of not less than 3000 nM.

[2] = molecular target: T2, CYP2C9 (Homo sapiens, UniProt P11712); test: CYP inhibitory test using human liver microsome; assay type: in vitro ADME; conditions: model substrate diclofenac, 37° C., 10 min, read-out: CYP2C9 inhibition, IC50
T2 construct: Human liver microsome (20 mg protein/mL, 5 μL, Xenotech LLC, purchased from Lenexa Kans.); tissue Xenotech LLC; host or cells: human liver microsomes
T2 sequence (P11712 whole entry): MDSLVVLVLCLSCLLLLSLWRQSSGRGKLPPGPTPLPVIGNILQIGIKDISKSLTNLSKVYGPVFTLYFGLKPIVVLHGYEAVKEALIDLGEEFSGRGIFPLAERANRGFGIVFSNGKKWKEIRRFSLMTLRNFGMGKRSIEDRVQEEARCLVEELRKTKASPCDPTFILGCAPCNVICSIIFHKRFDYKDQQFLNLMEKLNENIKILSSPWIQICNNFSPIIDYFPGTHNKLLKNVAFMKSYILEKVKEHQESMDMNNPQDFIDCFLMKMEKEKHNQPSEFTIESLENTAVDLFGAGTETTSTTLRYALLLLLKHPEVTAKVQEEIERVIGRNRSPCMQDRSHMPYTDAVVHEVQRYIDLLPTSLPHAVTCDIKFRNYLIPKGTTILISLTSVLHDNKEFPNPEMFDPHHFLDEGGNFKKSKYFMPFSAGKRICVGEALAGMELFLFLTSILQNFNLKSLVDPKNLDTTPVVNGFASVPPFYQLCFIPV
Procedure: Experimental Example 2 CYP Inhibitory Test Using Human Liver Microsome
Human liver microsome (20 mg protein/mL, 5 μL, Xenotech LLC, purchased from Lenexa Kans.) was suspended in 100 mM potassium phosphate buffer (70 μL, pH 7.4), mixed with a solution (0.5 μL) of the Example compound dissolved in DMSO and preincubated at 37° C. for 5 min. NADPH producing system coenzyme solution (β-nicotinamide adenine dinucleotide phosphate: 5.2 mM, D-glucose-6-phosphate: 13.2 mM, magnesium chloride: 13.2 mM, glucose-6-phosphate dehydrogenase: 1.8 U/mL) 25 μL, and a model substrate (CYP3A4: midazolam 1 mM, CYP2D6: bufuralol 1 mM, CYP2C9: diclofenac 2 mM) 0.5 μL dissolved in DMSO were added to start the reaction. After incubation at 37° C. for 10 min., acetonitrile (200 μL) containing an internal standard substance (propranolol 1 μM) was added and the mixture was centrifuged (room temperature, 3000 rpm, 20 min). The amount of the metabolite produced from each model substrate in the supernatant was measured by high performance liquid chromatography/mass spectrometry (LC/MS/MS) and each CYP enzyme activity was determined. The concentration showing 50% inhibition (IC50) was calculated relative to the enzyme activity without addition of Example compound (DMSO 0.5 μL added) as 100%.
As a comparative example, the CYP enzyme activity of the compound described in JP-A-3-135917 was examined by determining the IC50 value in the same manner as above.

Row | Compound | IC50 [1] [µM] | IC50 [2] [µM]
1 | CCc1cc(C)c2c(c1)N(CCC(=O)O)C(=O)C(C(C)C)O2 (stereo not shown) [Example 101, 3-(6-ethyl-2-isopropyl-8-methyl-3-oxo-2,3-dihydrobenzo[1,4]oxazin-4-yl)propionic acid] | < 0.3 | > 50
2 | Cc1c(Cl)cc2c(c1Cl)OC(C(C)C)C(=O)N2CCC(=O)O (stereo not shown) [Example 94, 3-(6,8-dichloro-2-isopropyl-7-methyl-3-oxo-2,3-dihydrobenzo[1,4]oxazin-4-yl)propionic acid] | < 0.3 | > 50
3 | Cc1cccc2c1OC(C(C)C)CN2C(=O)/C=C/C(=O)O (stereo not shown) [Example 54, (E)-4-(2-isopropyl-8-methyl-2,3-dihydrobenzo[1,4]oxazin-4-yl)-4-oxo-2-butenoic acid] | ≥ 3 | > 50
4 | CC(C)c1cccc2c1OC(C(C)C)C(=O)N2CC(=O)O (stereo not shown) [Example 9, (2,8-diisopropyl-3-oxo-2,3-dihydrobenzo[1,4]oxazin-4-yl)acetic acid] | ≥ 3 | 30
5 | CC(C)c1cccc2c1OC(C(C)C)C(=S)N2CCC(=O)O (stereo not shown) [Example 16, 3-(2,8-diisopropyl-3-thioxo-2,3-dihydrobenzo[1,4]oxazin-4-yl)propionic acid] | 0.3 to 3 | > 50
6 | Cc1cc(Cl)c2c(c1)N(CCC(=O)O)C(=O)[C@@H](C(C)C)O2 [Example 106, 3-((R)-8-chloro-2-isopropyl-6-methyl-3-oxo-2,3-dihydrobenzo[1,4]oxazin-4-yl)propionic acid] | < 0.3 | > 50
7 | Cc1cc(Cl)cc2c1O[C@@H](C(C)C)C(=O)N2CCC(=O)O [Example 110, 3-((S)-6-chloro-2-isopropyl-8-methyl-3-oxo-2,3-dihydrobenzo[1,4]oxazin-4-yl)propionic acid] | 0.3 to 3 | > 50
8 | Cc1cccc2c1OC(c1ccccc1)CN2C(=O)/C=C/C(=O)O (stereo not shown) [Example 55, (E)-4-(8-methyl-2-phenyl-2,3-dihydrobenzo[1,4]oxazin-4-yl)-4-oxo-2-butenoic acid] | ≥ 3 | > 50
9 | Cc1ccc2c(c1)N(C(=O)/C=C/C(=O)O)CC(C(C)C)O2 (stereo not shown) [Example 64, (E)-4-(2-isopropyl-6-methyl-2,3-dihydrobenzo[1,4]oxazin-4-yl)-4-oxo-2-butenoic acid] | 0.3 to 3 | > 50
10 | CC(C)c1cccc2c1OC(C(C)C)CN2C(=O)/C=C\C(=O)O (stereo not shown) [Example 37, (Z)-4-(2,8-diisopropyl-2,3-dihydrobenzo[1,4]oxazin-4-yl)-4-oxo-2-butenoic acid] | 0.3 to 3 | > 50
11 | CC(C)c1cccc2c1OC(c1ccccc1)C(=O)N2CCC(=O)O (stereo not shown) [Example 38, 3-(8-isopropyl-3-oxo-2-phenyl-2,3-dihydrobenzo[1,4]oxazin-4-yl)propionic acid] | < 0.3 | > 50
12 | CC[C@H](C)[C@H]1Oc2c(C)cc(C)cc2N(CCC(=O)O)C1=O [Example 105, 3-[(R)-2-((S)-sec-butyl)-6,8-dimethyl-3-oxo-2,3-dihydrobenzo[1,4]oxazin-4-yl]propionic acid] | < 0.3 | > 50
13 | CC(C)c1cccc2c1OC(C(C)C)C(=S)N2CC(=O)O (stereo not shown) [Comparative Example, reference compound] |  | 16
14 | CC(C)C1Oc2ccccc2N(CC(=O)O)C1=O (stereo not shown) [Example 6, (2-isopropyl-3-oxo-2,3-dihydrobenzo[1,4]oxazin-4-yl)acetic acid] | ≥ 3 | 
15 | Cc1cc(C)c2c(c1)N(CCC(=O)O)C(=O)C(CC(C)C)O2 (stereo not shown) [Example 90, 3-(2-isobutyl-6,8-dimethyl-3-oxo-2,3-dihydrobenzo[1,4]oxazin-4-yl)propionic acid] | < 0.3 | 
16 | O=C(O)CN1C(=S)COc2ccccc21 [Example 17, (3-thioxo-2,3-dihydrobenzo[1,4]oxazin-4-yl)acetic acid] | ≥ 3 | 
17 | Cc1ccc2c(c1)N(CCC(=O)O)C(=O)C(C(C)C)O2 (stereo not shown) [Example 58, 3-(2-isopropyl-6-methyl-3-oxo-2,3-dihydrobenzo[1,4]oxazin-4-yl)propionic acid] | 0.3 to 3 | 
18 | Cc1cc(C)c2c(c1)N(CCC(=O)O)C(=O)C(C(C)C)O2 (stereo not shown) [Example 61, 3-(2-isopropyl-6,8-dimethyl-3-oxo-2,3-dihydrobenzo[1,4]oxazin-4-yl)propionic acid] | < 0.3 | 
19 | CCc1cccc2c1OC(c1ccccc1)C(=O)N2CCC(=O)O (stereo not shown) [Example 59, 3-(8-ethyl-3-oxo-2-phenyl-2,3-dihydrobenzo[1,4]oxazin-4-yl)propionic acid] | 0.3 to 3 | 
20 | Cc1cccc2c1OC(C(C)C)C(=O)N2CCC(=O)O (stereo not shown) [Example 44, 3-(2-isopropyl-8-methyl-3-oxo-2,3-dihydrobenzo[1,4]oxazin-4-yl)propionic acid] | < 0.3 | 
21 | O=C(O)CCN1C(=O)C(c2ccccc2)Oc2ccc(Cl)cc21 (stereo not shown) [Example 77, 3-(6-chloro-3-oxo-2-phenyl-2,3-dihydrobenzo[1,4]oxazin-4-yl)propionic acid] | ≥ 3 | 
22 | CC(C)C1Oc2c(Cl)cc(Cl)cc2N(CCC(=O)O)C1=O (stereo not shown) [Example 80, 3-(6,8-dichloro-2-isopropyl-3-oxo-2,3-dihydrobenzo[1,4]oxazin-4-yl)propionic acid] | < 0.3 | 
23 | CCC1Oc2c(C(C)C)cccc2N(CC(=O)O)C1=O (stereo not shown) [Example 39, (2-ethyl-8-isopropyl-3-oxo-2,3-dihydrobenzo[1,4]oxazin-4-yl)acetic acid] | ≥ 3 | 
24 | O=C(O)CCCCC(=O)N1CCOc2ccccc21 [Example 27, 6-(2,3-dihydrobenzo[1,4]oxazin-4-yl)-6-oxohexanoic acid] | ≥ 3 | 
25 | O=C(O)CCN1C(=O)COc2ccccc21 [Example 19, 3-(3-oxo-2,3-dihydrobenzo[1,4]oxazin-4-yl)propionic acid] | ≥ 3 | 
26 | Cc1cc(C)c2c(c1)N(CCC(=O)O)C(=O)C(C)O2 (stereo not shown) [Example 86, 3-(2,6,8-trimethyl-3-oxo-2,3-dihydrobenzo[1,4]oxazin-4-yl)propionic acid] | ≥ 3 | 
27 | CC1(C)Oc2ccccc2N(CC(=O)O)C1=O [Example 5, (2,2-dimethyl-3-oxo-2,3-dihydrobenzo[1,4]oxazin-4-yl)acetic acid] | ≥ 3 | 
28 | CCCCC1Oc2c(C)cc(C)cc2N(CCC(=O)O)C1=O (stereo not shown) [Example 93, 3-(2-butyl-6,8-dimethyl-3-oxo-2,3-dihydrobenzo[1,4]oxazin-4-yl)propionic acid] | 0.3 to 3 | 
